Experiments:
[1] = Half-lives of peptides in murine intestinal fluid (intestinal enzyme solution); conditions: relates to undiluted murine intestinal fluid, 90 min incubation in dilutions, 37° C.
Experimental: Anesthetized female Balb/c mice were sacrificed by cervical dislocation and their abdominal wall was opened. The small bowel was clamped with a hemostat behind the stomach outlet (proximal end) and severed from the stomach. The small bowel was exposed and clamped with a second hemostat near the posterior (distal) end. The bowel was severed a second time behind this point.
The subsequent preparation steps to obtain the digestive secretions were performed on an ice-cooled surface. The small bowel closed on both sides was agitated in ice-cold simulated intestinal fluid (SIF; 8 mM phosphate, pH 7.2, with 4.6 mM K^+, 111.3 mM Na^+, 101.5 mM Cl) according to Lockwood and Randall (1949), which was intended to imitate as accurately as possible the physiological conditions of the small bowel in terms of ion concentrations, in order to remove external contaminants and keep it moist. To obtain the digestive secretions present in the small bowel, the distal end of the bowel was suspended in a reaction vessel and the hemostat attached on this side was removed. A lateral cut was then made at the proximal end of the bowel so that a syringe provided with a button cannula could be introduced into the bowel which was held without tension. The bowel contents were washed out in three steps. The washing solutions were successively injected slowly into the bowel and collected at the lower end of the bowel separately in three reaction vessels. Firstly, the bowel was rinsed with a volume of 6 ml of perfluorohexane, an inert liquid which is immiscible with water, and the perfluorohexane was driven out with 4 ml of air. Then a mixture of 2.25 ml of perfluorohexane and 0.25 ml of SIF which contained the nonphysiological ions Li^+ and Cs^+, was used for washing in order to be able subsequently to determine the dilution by spectroscopic methods. […] In a third washing step, 5 ml of SIF without tracer were injected. Solid constituents of the bowel contents and the perfluorohexane were separated by centrifugation from the aqueous phase, in which the digestive enzymes were present. An inductively coupled plasma mass spectrometry (ICP-MS) was used to determine the concentrations of Li^+ and Cs^+ in the intestinal enzyme solution, and the dilution factor was calculated taking the volume of the washing buffer into account. The dilution of the third lavage was ascertained via endogenous markers of intestinal secretion (e.g. enzymic activities, immunoglobulins), in comparison with the first two intestinal enzyme solutions. The enzyme solutions were stored after freezing with liquid nitrogen at −70° C.
On a polypropylene microtiter plate having the same format as the coated polystyrene microtiter plate (see example 4), 7.5 μl of peptide solution were introduced into the first well of a row, and 5 μl of the peptide solution were introduced into each of the next 10 wells. The last well remained empty and was intended to serve as background correction. Then, simulated intestinal fluid (SIF) with the addition of 0.005% Tween 20 and 1 mM CaCl (SIFT-CaCl) was put in all the wells. The well with 7.5 μl of peptide solution received 60 μl of SIFT-CaCl, and the wells with 5 μl of peptide solution each received 45 μl of SIFT-CaCl. The empty well for the background correction received 50 μl of SIFT-CaCl. The enzymatic reaction was then started by adding 7.5 μl of a dilution of an intestinal enzyme solution (obtained as in example 2) to the well with 7.5 μl of peptide solution and 60 μl of SIFT-CaCl. 25 μl of this mixture were immediately pipetted into the next well and mixed, and this step was repeated to result in a serial 1:3 dilution of the intestinal enzyme solution over a total of 10 wells. No enzyme solution was put into the last peptide-containing well. Each well thus contained a volume of 50 μl after the serial dilution.

chymotrypsin = assay: Inhibition of enzymatic conversion of GVPFGP by chymotrypsin; assay type: biochemical; conditions: degradation of GVPFGP by chymotrypsin; geometric mean and standard deviation of a quadruplicate measurement; read-out: inhibition constant
Experimental: (§1) Inhibition constants were measured by carrying out two parallel enzyme dilutions in each case. One enzyme dilution was carried out in the presence, and the other enzyme dilution in the absence, of the protease inhibitor aprotinin. […] The peptide chosen for the trypsin enzyme had the amino acid sequence GPARLA (number 42 from example 1) and the peptide chosen for the chymotrypsin enzyme had the sequence GVPFGP (number 43 from example 1). […] Then, to carry out the proteolytic cleavage in the presence of an inhibitor, 7.5 μl of an aprotinin solution (1 μg/ml for trypsin and 1 mg/ml for chymotrypsin) were put into the first well, and 5 μl of the aprotinin solution (1 μg/ml for trypsin and 1 mg/ml for chymotrypsin) were put into each of the next 10 wells. […] No enzyme solution was put in the last peptide-containing well.
(§2) The inhibition constant of aprotinin can be calculated by comparing the catalytic efficiency (kcat/KM) in the presence and in the absence of aprotinin. kcat/KM values are calculated according to equation (6) and the relationship obtained (equation (17)):
(§3) (kcat/KM)0/(kcat/KM)=1+[I]total/Ki

trypsin [2] = assay: Inhibition of enzymatic conversion of GPARLA by trypsin; assay type: biochemical; conditions: degradation of substrate GPARLA by trypsin; geometric mean and standard deviation of a quadruplicate measurement; read-out: inhibition constant
Experimental: as §1, §2, §3

trypsin [3] = conditions: cleaved with trypsin; FRET-based methods (Grahn et al., 1998); cited from earlier work

Substance FDKLPGFGDSIEAQCG has a t1/2 ([1]; 16-mer peptides) of 5.6930 s.
Work on aprotinin yielded a Ki (chymotrypsin) of 480 nM and a Ki (trypsin [2]) of 1 nM.
KLPGFGDSIEAQCGTS gave a t1/2 ([1]; 16-mer peptides) of 6.4211 s.
Substance VVGSAEAGVD has a t1/2 ([1]; 10-mer peptides) of 4.0618 s.
In the case of “GPARLAIG [GPARLAIG variant of the trypsin substrate, measured with FRET-based methods (Grahn et al., 1998)]”, the catalytic efficiency (trypsin [3]) is listed as 1.2e+06 M⁻¹ s⁻¹.
Substance GSAEAGVDAA has a t1/2 ([1]; 10-mer peptides) of 3.1271 s.
FGDSIEAQCGTSVNVH gave a t1/2 ([1]; 16-mer peptides) of 1.3951 s.
With PGFGDSIEAQCGTSVN the t1/2 ([1]; 16-mer peptides) was 5.0348 s.
